Assay results reported in patent EP4380555B1, “COMPOSITION COMPRISING D-MANNOSE, N-ACETYLCYSTEINE AND PALMITOYLETHANOLAMIDE AND ITS USE FOR THE TREATMENT OF URIRNARY TRACT INFECTIONS” (Agave S.r.l., priority 2021, dated 2023).

Columns and labels:
[1] = system: Enterococcus faecium; experiment: MIC determination by broth dilution (CLSI M07), 96-well plates; type: cell-based; conditions: E. faecium; range tested: Comp. 1 100-0.05 g/L, D-mannose 65-0.03 g/L; 24 h
[2] = system: Escherichia coli (DSM 1576); experiment: as above; type: cell-based; conditions: E. coli; range tested: Comp. 1 100-0.05 g/L, D-mannose 65-0.03 g/L; 24 h
Procedure: (§1) The antimicrobial activity of the product Comp. 1 in Example 10 was tested in vitro according to method CLSI M07 "Methods for dilution Antimicrobial susceptibility tests for bacteria that grow aerobically".
(§2) For this purpose, the MIC (Minimum Inhibitory Concentration) values were determined with respect to the main microorganisms responsible for urinary tract infections.
(§3) More specifically, the microorganisms utilised were: Escherichia coli (DSM 1576), Klebsiella pneumoniae (DSM 30104), and Enterococcus faecalis(DSM 20477).
(§4) For each experiment conducted, the bacteria stated above were revived from a cell bank stored at -80°C. […]
(§5) The assay to determine the MIC was conducted in 96-well plates testing 12 concentrations (serial dilutions) of each sample. 200 µL of the sample, prepared at a concentration of 2x with respect to the maximum concentration being tested, was dispensed into the first well and 100 µL medium was added to the subsequent wells, performing serial dilutions of 1:2 up to 12th well. Finally, 100 µL of each microorganism at a concentration of 10^5 was inoculated into each well.
(§6) Two antibiotics were used as controls: Fosfomycin (Sigma) and Ceftriaxone (Sigma) at different final concentrations based on the microorganism utilised; both the antibiotics were dissolved in sterile water and then filtered with 0.22 µm filters.
(§7) Growth was tested and the sterility of the medium and of the product was tested. The antimicrobial activity of the D-mannose was also assessed individually. The plates thus prepared were incubated at 37°C for 24h and the results were then observed (Figure 1). The final concentrations tested for each product analysed are stated in Table 2.

[3] = system: Klebsiella pneumoniae (DSM 30104); experiment: as above; type: cell-based; conditions: K. pneumoniae; range tested: Comp. 1 100-0.05 g/L, D-mannose 65-0.03 g/L; 24 h
Procedure: as §1, §2, §3, §4, §5, §6, §7

[4] = system: Klebsiella pneumoniae; experiment: MBIC, comparison with D-mannose, crystal violet staining; type: cell-based
Procedure: (§8) To determine the MBIC with the product Comp. 1 in Example 10 with respect to the D-mannose, 48-well plates were utilised. 200 µL of the product Comp. 1, prepared at a concentration of 2x with respect to the maximum concentration being tested, was dispensed into the first well and […] was added to the subsequent wells, performing serial dilutions of 1:2 up to the 8th well. Finally, 200 µL of each microorganism, at a concentration of 10^5, was inoculated into each well. The biofilm inhibition activity of the D-mannose at the same concentration as that present in the product Comp. 1 was also assessed. The multiwell plates were incubated at 37°C for 24 hours and then the supernatant present was removed, together with the planktonic bacteria not attached to the plate. The biofilm was then washed 3 times with PBS and subsequently the cells were fixed by means of incubation at 60°C for 2 hours, before being stained with crystal violet. 100 µL crystal violet dissolved in deionised water was dispensed into each well and, after 5 minutes of incubation at room temperature, each well was finally washed three times with PBS 1x. The biofilm inhibition activity was viewed by microscopic observation under stereomicroscope and optical microscope using the phase-contrast method. The final concentrations tested for each compound are stated in Table 6. Table 6 [table]

[5] = system: Enterococcus faecium; experiment: as above; type: cell-based
Procedure: as §8

[6] = system: Escherichia coli; experiment: as above; type: cell-based
Procedure: as §8

[7] = system: IL-8; experiment: Anti-inflammatory activity: IL-8 production induced by TNFα, ELISA; type: cell-based, human; conditions: 0.2 µg/mL TNFα, 6 hours
Description: We assessed the capacity of the product Comp. 1 in Example 10 to inhibit or reduce the inflammatory state induced, in the same cells as in the previous example, by pro-inflammatory cytokine TNFα. This treatment led to the production of interleukin 8 (IL-8), which is cause of the "recruitment" of white blood cells to the site of inflammation. The IL-8 levels are directly proportional to the intensity of said inflammation.
The 6 product concentrations utilised in the anti-inflammatory test were chosen based on the cell viability test results. […] This is because the product per se leads to the reduction, and therefore the staining, of the MTT.
We first determined the optimal amount of TNFα to perform the test. […] The treatment was performed at 37°C and 5% CO2 for a total of 6 hours; aliquots of 200 µL of the growth medium were taken at the start of the treatment (T0) and after 1, 2, 4 and 6 hours, and then analysed by ELISA test. […]
Anti-inflammatory drug dexamethasone (dex) at a concentration of 0.1 mg/mL was utilised as a positive control. The treatment was performed for 6 hours, at the end of which as aliquots of 200 µL of the growth medium were taken and then analysed by ELISA test. […] The quantification was performed by setting up a calibration curve with different concentrations of a standard IL-8 solution, supplied with the kit. […]

[8] = system: Enterococcus faecium; experiment: MBEC test of composition versus its components, 24 h preformed biofilm, crystal violet; type: cell-based; conditions: MBEC E. faecium
Procedure: To determine the minimum biofilm eradication concentration, 48-well plates were utilised. The microorganisms were incubated for 24 h at 37°C to allow the formation of the biofilm. Once formed, the biofilms were treated with the composition in Example 1 and the respective components (as per Example 17) to eradicate the biofilm. In particular, after the formation of the biofilm, the supernatant was suctioned and replaced with solutions containing decreasing concentrations of the product. The plates thus prepared were incubated for 24 h at 37°C. At the end of the incubation time, the supernatant present in each well was removed, together with the bacteria that was not attached to the plate and following the washes with sterile deionised water the plates were incubated at 60°C for 2 hours to fix the cells before the staining with crystal violet. The crystal violet staining was performed to assess the effect of the product and of the components thereof on the removal of the biofilm. 200 µL of crystal violet dissolved in deionised water at a concentration of 0.02% was dispensed into each well and, after 5 minutes of incubation at room temperature, each well was washed three times with sterile deionised water. The biofilm eradication activity was viewed under microscopic observation.

[9] = system: Klebsiella Pneumoniae DSM 30104; experiment: MBIC test of composition versus its components, crystal violet absorbency at 595 nm; type: cell-based; conditions: MBIC K. pneumoniae
Procedure: (§9) The composition of Example 1 was tested to assess the capacity to inhibit the formation of biofilm shown by the following microorganisms: • Klebsiella Pneumoniae DSM 30104 • Enterococcus Faecium DSM 20477
(§10) The bacteria stated above were revived from the working cell bank, stored at -80°C, for each experiment conducted.
(§11) The tests were conducted on the following formulations: • Mannose 3000 mg + NAC 600 mg + PEA 600 mg (i.e. composition Example 1) • Mannose 3000 mg + NAC 600 mg • PEA 600 mg
(§12) The three formulations were dissolved at 100 gr/l in sterile TSB/TSYEM medium and then utilised to perform the MBIC test as follows.
(§13) MBIC 48-well plates were utilised for the determination. 800 µL sample, prepared at a concentration of 2x with respect to the maximum concentration being tested, was dispensed into the first well and 400 µL medium was added to the subsequent wells, performing serial dilutions of 1:2 up to the 8th well. Finally, 400 µL of each microorganism at a concentration of 10^5 was inoculated into each well. The multiwell plates were incubated at 37°C for 24 hours and then the supernatant present was removed, together with the planktonic bacteria not attached to the plate.
(§14) The biofilm was then washed 3 times with sterile deionised water and subsequently the cells were fixed by means of incubation at 60°C for 2 hours, before being stained with crystal violet. The crystal violet staining was performed to assess the effect of the product and the components thereof on the biofilm formation. 200 µL of 0.02% crystal violet dissolve in deionised water was dispensed into each well and, after 5 minutes of incubation at room temperature, each well was finally washed three times with sterile deionised water. The biofilm inhibition activity was viewed by microscopic observation under stereomicroscope.
(§15) At the end of the microscopic observation of the condition of the biofilm by staining, the stain fixed to the biofilm treated was extracted utilising 100% methanol for 5 minutes at room temperature. The methanolic extract thus obtained was analysed under spectrophotometer to measure the absorbency at 595 nm. As the solution stain intensity obtained is proportional to the biofilm remaining, absorbency is a quantitative parameter which can be used to measure the amount of biofilm. Absorbency was therefore utilised to determine the biofilm decrease percentage by comparing the data obtained following treatments against the untreated biofilm control.

[10] = system: Enterococcus Faecium DSM 20477; experiment: as above; type: cell-based; conditions: E. faecium MBIC
Procedure: as §9, §10, §11, §12, §13, §14, §15

O=C[C@@H](O)[C@@H](O)[C@H](O)[C@H](O)CO [D-mannose]
antimicrobial activity [1]: did not demonstrate any antimicrobial activity
antimicrobial activity [2]: did not demonstrate any antimicrobial activity
antimicrobial activity [3]: did not demonstrate any antimicrobial activity
concentration of the mannose alone needed for the same efficaciousness as Comp. 1 ([4]; K pneumoniae biofilm): approximately 10 times
concentration active on biofilm formation ([4]; K. pneumoniae, 24 h): 8.13 g/L
concentration of the mannose alone needed for the same efficaciousness as Comp. 1 ([5]; E. faecium biofilm): approximately 10 times
concentration with evident activity on the biofilm ([5]; E. faecium, 24 h): 65 g/L
concentration of the mannose alone needed for the same efficaciousness as Comp. 1 ([6]; E. coli biofilm): approximately 2.5 times
concentration active on biofilm formation ([6]; E. coli, 24 h): 32.5 g/L

C[C@@H]1C[C@H]2[C@@H]3CCC4=CC(=O)C=C[C@]4(C)[C@@]3(F)[C@@H](O)C[C@]2(C)[C@@]1(O)C(=O)CO [Dex, dexamethasone]
concentration of IL-8 with respect to the cells treated solely with TNFα ([7]; Dex 0.1 mg/mL, TNFα alone = 100): 69%
IL-8 produced less than that produced by the cells treated solely with TNFα ([7]; Dexamethasone 0.1 mg/mL): 31%

CCCCCCCCCCCCCCCC(=O)NCCO [PEA, palmitoylethanolamide]
Abs 595 nm ([8]; 24 h biofilm, 24 h treatment, untreated biofilm 2.09): 2.098
% decrease ([8]; treated versus untreated biofilm): 0%
Abs 595 nm ([9]; 1.56 g/L product of Example 1, components at the same concentration as in the composition, untreated biofilm 0.176): 0.129
% decrease ([9]; treated versus untreated biofilm, 1.56 g/L product of Example 1): 26.70%
Abs 595 nm ([10]; 3.13 g/L product of Example 1, components at the same concentration as in the composition, untreated biofilm 0.318): 0.304
% decrease ([10]; treated versus untreated biofilm, 3.13 g/L product of Example 1): 4%
